According to patent US20090133153A1, “Polypeptide participating in pyridoxine biosynthesis, polynucleotide encoding the polypetide and those uses” (Genomine, Inc, priority 2004, published 2009):

Assays:
[1] = test system: T2 Arabidopsis thaliana transformant (anti-sense AtPDX4); assay: Pyridoxine auxotrophy test: T2 seeds of anti-sense AtPDX4 transformant on MS medium with pyridoxine; type: in vivo; conditions: 2.5 mg/L pyridoxine-HCl; for seeds germinated to grow: MS medium with 12 mg/L PPT
Protocol: Arabidopsis thaliana was cultivated in a soil-filled pot or cultivated in a petri dish by using MS medium (Murashige and Skoog salts, Sigma, U.S.A.) containing 2% sucrose (pH 5.7) and 0.8% agar. In this study, vitamin B6 group (including pyridoxine) was excluded from the vitamin mixture used in the MS medium. The culture pot was incubated at 22° C. in a growth chamber and controlled by 16/8 hours of light and dark cycle. Meanwhile, in order to investigate whether the plant transformant becomes pyridoxine auxotroph mutant or not after transformed with anti-sense construct against AtPDX4 gene, T2 seed of Arabidopsis thaliana transformant was collected from T1 transformant and cultivated to estimate the reaction by adding pyridoxine. Above all, MS medium containing 12 mg/L PPT (phosphinothricine, Duchefa, Netherlands) was prepared and T2 seeds were treated at a low temperature (4° C.) for 3 days. 120 of T2 seeds were cultivated respectively on 2 (total 4) petri dishes of MS media (30 seeds per petri dish) with or without 2.5 mg/L of pyridoxine-HCl (Sigma, USA), so as to select T2 Arabidopsis thaliana transformant.

[2] = test system: T2 Arabidopsis thaliana transformant (anti-sense AtPDX4); assay: Phenotype recovery of T2 anti-sense AtPDX4 transformant by vitamin B6's; type: in vivo; conditions: 0.5 mg/L, 7 days
Protocol: Arabidopsis thaliana was cultivated in a soil-filled pot or cultivated in a petri dish by using MS medium (Murashige and Skoog salts, Sigma, U.S.A.) containing 2% sucrose (pH 5.7) and 0.8% agar. In this study, vitamin B6 group (including pyridoxine) was excluded from the vitamin mixture used in the MS medium. The culture pot was incubated at 22° C. in a growth chamber and controlled by 16/8 hours of light and dark cycle.
Above all, in order to select T2 Arabidopsis transformant, MS medium containing 12 mg/L PPT (phosphinothricine, Duchefa, Netherlands) was prepared and T2 seeds were treated at a low temperature (4° C.) for 3 days. 120 of T2 seeds were cultivated on petri dishes containing MS media with or without 0.5 mg/L of pyridoxine-HCl (Sigma, USA), pyridoxamine-2HCl (Sigma, USA), pyridoxal-HCl (Sigma, USA) or pyridoxal-5-phosphate (Sigma, USA).

Question: Which results are given for `Cc1ncc(CO)c(CO)c1O` [pyridoxine, 2-methyl-3-hydroxy-4,5-di(hydroxymethyl)pyridine]?
Answer: phenotype compared with wild type Arabidopsis thaliana ([1]; 7 days): not to change in the phenotype remarkably; phenotype compared with wild type Arabidopsis ([1]; 19 days): not to change in the phenotype such as growth retardation; seeds germinated to grow ([1]; 7 days): 22 seeds; seeds germinated to grow ([1]; 19 days): 24 seeds; phenotype of plant transformant [2]: not to change in the phenotype remarkably; seeds germinated to grow ([2]; MS medium with 12 mg/L PPT): 26 seeds
